From publication PMC10866072, “Design, synthesis, molecular modelling and biological evaluation of novel 6-amino-5-cyano-2-thiopyrimidine derivatives as potent anticancer agents against leukemia and apoptotic inducers” (Journal of Enzyme Inhibition and Medicinal Chemistry, 2024)

Assays:
[1] = system: CCRF-CEM; assay type: cell-based; conditions: Homo sapiens, one dose 10^-5 M, 48 h
[2] = system: HL-60(TB); assay type: cell-based; conditions: Homo sapiens, one dose 10^-5 M, 48 h
[3] = system: K-562; assay type: cell-based; conditions: Homo sapiens, K562, one dose 10^-5 M, 48 h
[4] = system: MOLT-4; assay type: cell-based; conditions: Homo sapiens, one dose 10^-5 M, 48 h, read-out: % growth
[5] = system: RPMI-8226; assay type: cell-based; conditions: Homo sapiens, one dose 10^-5 M, 48 h
[6] = system: SR; assay type: cell-based; conditions: Homo sapiens, one dose 10^-5 M, 48 h
[7] = system: A549/ATCC; assay type: cell-based; conditions: Homo sapiens, one dose 10^-5 M, 48 h
[8] = system: EKVX; assay type: cell-based; conditions: Homo sapiens, one dose 10^-5 M, 48 h
[9] = system: HOP-62; assay type: cell-based; conditions: Homo sapiens, one dose 10^-5 M, 48 h
[10] = system: HOP-92; assay type: cell-based; conditions: one dose 10^-5 M, 48 h; for % growth at 10 µM: Homo sapiens
[11] = system: NCI-H226; assay type: cell-based; conditions: one dose 10^-5 M, 48 h; for % growth at 10 µM: Homo sapiens
[12] = system: NCI-H23; assay type: cell-based; conditions: Homo sapiens, one dose 10^-5 M, 48 h, read-out: % growth
[13] = system: NCI-H460; assay type: cell-based; conditions: Homo sapiens, one dose 10^-5 M, 48 h, read-out: % growth
[14] = system: NCI-H522; assay type: cell-based; conditions: Homo sapiens, one dose 10^-5 M, 48 h
[15] = system: HCC-2998; assay type: cell-based; conditions: Homo sapiens, one dose 10^-5 M, 48 h
[16] = system: HCT-116; assay type: cell-based; conditions: Homo sapiens, one dose 10^-5 M, 48 h, read-out: % growth
[17] = system: HCT-15; assay type: cell-based; conditions: Homo sapiens, one dose 10^-5 M, 48 h, read-out: % growth
[18] = system: HT29; assay type: cell-based; conditions: Homo sapiens, HT-29, one dose 10^-5 M, 48 h
[19] = system: KM12; assay type: cell-based; conditions: Homo sapiens, one dose 10^-5 M, 48 h
[20] = system: SW-620; assay type: cell-based; conditions: Homo sapiens, one dose 10^-5 M, 48 h
[21] = system: SF-268; assay type: cell-based; conditions: Homo sapiens, one dose 10^-5 M, 48 h, read-out: % growth
[22] = system: SF-295; assay type: cell-based; conditions: Homo sapiens, one dose 10^-5 M, 48 h
[23] = system: SF-539; assay type: cell-based; conditions: Homo sapiens, one dose 10^-5 M, 48 h
[24] = system: SNB-19; assay type: cell-based; conditions: Homo sapiens, one dose 10^-5 M, 48 h, read-out: % growth
[25] = system: SNB-75; assay type: cell-based; conditions: one dose 10^-5 M, 48 h; for % growth at 10 µM: Homo sapiens
[26] = system: U251; assay type: cell-based; conditions: Homo sapiens, U-251, one dose 10^-5 M, 48 h
[27] = system: LOX IMVI; assay type: cell-based; conditions: Homo sapiens, one dose 10^-5 M, 48 h, read-out: % growth
[28] = system: MALME-3M; assay type: cell-based; conditions: Homo sapiens, one dose 10^-5 M, 48 h
[29] = system: M14; assay type: cell-based; conditions: Homo sapiens, one dose 10^-5 M, 48 h
[30] = system: MDA-MB-435; assay type: cell-based; conditions: Homo sapiens, one dose 10^-5 M, 48 h, read-out: % growth
[31] = system: SK-MEL-2; assay type: cell-based; conditions: Homo sapiens, one dose 10^-5 M, 48 h
[32] = system: SK-MEL-28; assay type: cell-based; conditions: Homo sapiens, one dose 10^-5 M, 48 h
[33] = system: SK-MEL-5; assay type: cell-based; conditions: Homo sapiens, one dose 10^-5 M, 48 h, read-out: % growth
[34] = system: UACC-257; assay type: cell-based; conditions: Homo sapiens, one dose 10^-5 M, 48 h
[35] = system: UACC-62; assay type: cell-based; conditions: Homo sapiens, one dose 10^-5 M, 48 h
[36] = system: IGROV1; assay type: cell-based; conditions: Homo sapiens, IGROV-1, one dose 10^-5 M, 48 h, read-out: % growth
[37] = system: OVCAR-3; assay type: cell-based; conditions: Homo sapiens, one dose 10^-5 M, 48 h
[38] = system: OVCAR-4; assay type: cell-based; conditions: Homo sapiens, one dose 10^-5 M, 48 h
[39] = system: OVCAR-5; assay type: cell-based; conditions: Homo sapiens, one dose 10^-5 M, 48 h
[40] = system: OVCAR-8; assay type: cell-based; conditions: Homo sapiens, one dose 10^-5 M, 48 h
[41] = system: SK-OV-3; assay type: cell-based; conditions: Homo sapiens, one dose 10^-5 M, 48 h
[42] = system: 786-0; assay type: cell-based; conditions: Homo sapiens, one dose 10^-5 M, 48 h
[43] = system: A498; assay type: cell-based; conditions: Homo sapiens, one dose 10^-5 M, 48 h
[44] = system: ACHN; assay type: cell-based; conditions: Homo sapiens, one dose 10^-5 M, 48 h
[45] = system: CAKI-1; assay type: cell-based; conditions: Homo sapiens, CAKI-1, 48 h, one dose 10^-5 M, 48 h
[46] = system: RXF 393; assay type: cell-based; conditions: Homo sapiens, RXF 393, 48 h, one dose 10^-5 M, 48 h, read-out: % growth
[47] = system: SN12C; assay type: cell-based, human; conditions: Homo sapiens, one dose 10^-5 M, 48 h
[48] = system: TK-10; assay type: cell-based; conditions: Homo sapiens, one dose 10^-5 M, 48 h
[49] = system: UO-31; assay type: cell-based; conditions: Homo sapiens, UO-31, 48 h, one dose 10^-5 M, 48 h
[50] = system: PC-3; assay type: cell-based; conditions: Homo sapiens, one dose 10^-5 M, 48 h
[51] = system: DU-145; assay type: cell-based; conditions: Homo sapiens, one dose 10^-5 M, 48 h
[52] = system: MCF7; assay type: cell-based; conditions: Homo sapiens, one dose 10^-5 M, 48 h, read-out: % growth
[53] = system: MDA-MB-231/ATCC; assay type: cell-based; conditions: Homo sapiens, one dose 10^-5 M, 48 h
[54] = system: HS 578T; assay type: cell-based; conditions: one dose 10^-5 M, 48 h, HS 578T; for activity at 10 µM: Homo sapiens, read-out: % growth
[55] = system: T-47D; assay type: cell-based; conditions: Homo sapiens, T47D, one dose 10^-5 M, 48 h, read-out: % growth
[56] = system: MDA-MB-468; assay type: cell-based; conditions: Homo sapiens, one dose 10^-5 M, 48 h
[57] = system: full NCI 60 cell lines panel; conditions: for activity at 10 µM: Homo sapiens, 60 cell, 48 h, read-out: Mean % growth

## Nc1nc(S)nc(-c2ccc(Cl)cc2)c1-c1ncn[nH]1 [Compound 5b, 4-Amino-6–(4-chlorophenyl)-5-(1H-1,2,4-triazol-5-yl)pyrimidine-2-thiol]
[1]
  % cell growth at 10 µM: 97.9%
[2]
  % growth at 10 µM: 108%
[3]
  % growth at 10 µM: 103%
[4]
  activity at 10 µM: 108%
[5]
  % growth at 10 µM: 98.6%
[6]
  percent cell growth at 10 µM: 96.6%
[7]
  % growth at 10 µM: 110%
[8]
  % cell growth at 10 µM: 98%
[9]
  % growth at 10 µM: 88.6%
[10]
  % growth at 10 µM: 91.7%
[11]
  % growth at 10 µM: 92.7%
[12]
  activity at 10 µM: 97%
[13]
  activity at 10 µM: 110%
[14]
  % growth at 10 µM: 85.5%
[15]
  % growth at 10 µM: 94.8%
[16]
  activity at 10 µM: 92.1%
[17]
  activity at 10 µM: 103%
[18]
  % growth at 10 µM: 95.4%
[19]
  % growth at 10 µM: 102%
[20]
  % growth at 10 µM: 103%
[21]
  activity at 10 µM: 96.7%
[22]
  % cell growth at 10 µM: 93.7%
[23]
  % growth at 10 µM: 92.5%
[24]
  activity at 10 µM: 91%
[25]
  % growth at 10 µM: 78.7%
[26]
  % growth at 10 µM: 98.8%
[27]
  activity at 10 µM: 99.2%
[28]
  % growth at 10 µM: 92.6%
[29]
  % growth at 10 µM: 98.9%
[30]
  activity at 10 µM: 103%
[31]
  % growth at 10 µM: 108%
[32]
  % cell growth at 10 µM: 111%
[33]
  activity at 10 µM: 98.7%
[34]
  percent cell growth at 10 µM: 112%
[35]
  % growth at 10 µM: 95.9%
[36]
  activity at 10 µM: 98.7%
[37]
  % growth at 10 µM: 108%
[38]
  % growth at 10 µM: 112%
[39]
  percent cell growth at 10 µM: 96.7%
[40]
  % growth of cells at 10 µM: 94.8%
[41]
  % growth at 10 µM: 85.5%
[42]
  % growth at 10 µM: 108%
[43]
  % growth at 10 µM: 109%
[44]
  % growth at 10 µM: 96.9%
[45]
  % growth at 10 µM: 82.8%
[46]
  activity at 10 µM: 115%
[47]
  % growth at 10 µM: 93.5%
[48]
  % cell growth at 10 µM: 109%
[49]
  % cell growth at 10 µM: 74.6%
[50]
  percent cell growth at 10 µM: 85.5%
[51]
  % growth at 10 µM: 109%
[52]
  activity at 10 µM: 93.8%
[53]
  % growth at 10 µM: 93.7%
[54]
  activity at 10 µM: 111%
[55]
  activity at 10 µM: 86.4%
[56]
  percent cell growth at 10 µM: 101%
[57]
  activity at 10 µM: 98.4%
[57]; one dose
  activity on all 60 cancer cell lines tested (in words): weak activity

## N=C(NN=Cc1ccccc1)c1c(N)nc(S)nc1-c1ccc(Cl)cc1 [Compound 4g, 4-amino-6–(4-chlorophenyl)-2-mercapto-N'-[phenylmethylene]pyrimidine-5-carboximido hydrazide]
[1]
  % cell growth at 10 µM: 65%
[2]
  % growth at 10 µM: 97%
[3]
  % growth at 10 µM: 52.4%
[4]
  activity at 10 µM: 58.5%
[5]
  % growth at 10 µM: 51.4%
[6]
  percent cell growth at 10 µM: 46.4%
[7]
  % growth at 10 µM: 31.6%
[8]
  % cell growth at 10 µM: 52.9%
[9]
  % growth at 10 µM: 30.2%
[10]
  % growth at 10 µM: -0.44%
  % growth: -0.44%
[11]
  % growth at 10 µM: -0.68%
  % growth: -0.68%
[12]
  activity at 10 µM: 64.3%
[13]
  activity at 10 µM: 16.5%
[14]
  % growth at 10 µM: 56.4%
[15]
  % growth at 10 µM: 93.1%
[16]
  activity at 10 µM: 30.6%
[17]
  activity at 10 µM: 53.1%
[18]
  % growth at 10 µM: 78.5%
[19]
  % growth at 10 µM: 62.3%
[20]
  % growth at 10 µM: 76.3%
[21]
  activity at 10 µM: 49.3%
[22]
  % cell growth at 10 µM: 35.6%
[23]
  % growth at 10 µM: 11.4%
[24]
  activity at 10 µM: 59.8%
[25]
  % growth at 10 µM: -34.3%
  % growth: -34.30%
[26]
  % growth at 10 µM: 13.2%
[27]
  activity at 10 µM: 22.6%
[28]
  % growth at 10 µM: 52.1%
[29]
  % growth at 10 µM: 70.6%
[30]
  activity at 10 µM: 77.3%
[31]
  % growth at 10 µM: 92.7%
[32]
  % cell growth at 10 µM: 88.5%
[33]
  activity at 10 µM: 84.9%
[34]
  percent cell growth at 10 µM: 92.8%
[35]
  % growth at 10 µM: 78.1%
[36]
  activity at 10 µM: 62.6%
[37]
  % growth at 10 µM: 77.7%
[38]
  % growth at 10 µM: 37.5%
[39]
  percent cell growth at 10 µM: 80.1%
[40]
  % growth of cells at 10 µM: 20.4%
[41]
  % growth at 10 µM: 81%
[42]
  % growth at 10 µM: 41.7%
[43]
  % growth at 10 µM: 105%
[44]
  % growth at 10 µM: 23.3%
[45]
  % growth at 10 µM: 31.2%
[46]
  activity at 10 µM: 8.96%
[47]
  % growth at 10 µM: 73.9%
[48]
  % cell growth at 10 µM: 93.9%
[49]
  % cell growth at 10 µM: 29.4%
[50]
  percent cell growth at 10 µM: 52.6%
[51]
  % growth at 10 µM: 48.7%
[52]
  activity at 10 µM: 42.2%
[53]
  % growth at 10 µM: 1.22%
[54]
  activity at 10 µM: -6.98%
  % growth: -6.98%
[55]
  activity at 10 µM: 49.4%
[56]
  percent cell growth at 10 µM: 49.7%
[57]
  activity at 10 µM: 50.8%
[57]; one dose, range over those cell lines
  % growth values, cell lines with lethal effect: −0.44%to-34.30
